A word on the IC50: it is the point on the concentration scale where inhibition reaches its midpoint. A word on the Kd: it is the constant that tells how readily two partners part at equilibrium.

The values below come from publication PMC3758491 (Pesticide biochemistry and physiology, 2013).

Where two headings read alike, the source gives them in different places.

Experiment [1] deals with T1, murine AChE (mAChE) (Mus musculus, UniProt P21836).
T1 sequence (P21836 32-614): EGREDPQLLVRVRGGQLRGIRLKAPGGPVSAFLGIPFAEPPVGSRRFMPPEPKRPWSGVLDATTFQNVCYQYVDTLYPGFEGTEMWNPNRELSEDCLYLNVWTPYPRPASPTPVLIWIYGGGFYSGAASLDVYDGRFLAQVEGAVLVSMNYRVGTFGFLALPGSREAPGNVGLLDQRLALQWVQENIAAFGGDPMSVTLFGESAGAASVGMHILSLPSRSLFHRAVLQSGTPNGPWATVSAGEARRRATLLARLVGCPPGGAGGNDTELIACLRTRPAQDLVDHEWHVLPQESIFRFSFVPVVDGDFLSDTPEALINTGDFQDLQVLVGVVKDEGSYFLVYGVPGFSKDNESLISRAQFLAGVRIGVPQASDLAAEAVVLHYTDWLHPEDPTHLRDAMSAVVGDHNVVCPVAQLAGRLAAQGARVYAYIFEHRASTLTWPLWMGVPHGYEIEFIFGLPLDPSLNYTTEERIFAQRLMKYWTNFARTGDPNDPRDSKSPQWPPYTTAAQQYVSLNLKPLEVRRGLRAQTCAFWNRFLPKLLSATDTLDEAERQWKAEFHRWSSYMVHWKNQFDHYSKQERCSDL
The experiment is described as follows: biochemical. The class given is binding.

The target of experiment [2] is T1, murine AChE (mAChE). The experiment is described as follows: biochemical.
For another experiment, the target named is human recombinant AChE. Particulars: cited from earlier work.
Experiment [3] concerns the target T1, murine AChE (mAChE). The experiment is described as follows: Equilibrium binding of TFT to mAChE.
The mark [4] stands for this setting: IC50 values (Mean ± SEM), Reduction of TFT Fluorescence.
The mark [5] stands for this setting: IC50 values (Mean ± SEM), Reduction of AChE activity.
[6] abbreviates: read-out: IC50 values (Mean ± SEM), Reduction of TFT Fluorescence, pH 7.4.
The mark [7] stands for this setting: read-out: IC50 values (Mean ± SEM), Reduction of AChE activity, pH 7.4.

For the compound `CNC(=O)Oc1ccccc1OC(C)C` [Propoxur, propoxur], at murine AChE (mAChE) [1], the “Ratio = IC50 TFT assay/IC50 Ellman assay” value is reported as 0.13 and the “fold lower IC50 in TFT assay than in Ellman assay” value is 7.7 fold. Also, the half-inhibitory concentration (IC50) at murine AChE (mAChE) [1] (setting [4]) amounted to 60 nM. Also, inhibition on murine AChE (mAChE) [2] (setting [5]) was half-maximal at 466 nM (IC50).

As for `CC[n+]1c(-c2ccccc2)c2cc(N)ccc2c2ccc(N)cc21` [Ethidium Bromide, ethidium bromide], on murine AChE (mAChE) [1], the “Ratio = IC50 TFT assay/IC50 Ellman assay” value was determined as 4.1. In addition, the “TFT/Ellman IC50 ratio” value on murine AChE (mAChE) [1] was “around four times higher”. Besides, the values for the half-inhibitory concentration (IC50) at murine AChE (mAChE) [1] (setting [4]) and against murine AChE (mAChE) [2] (setting [5]) were 16000 nM and 4000 nM, respectively.

Take `COc1cc2c3cc1Oc1cc(ccc1O)C[C@@H]1c4c(cc(OC)c(O)c4Oc4ccc(cc4)C[C@@H]3N(C)CC2)CC[N+]1(C)C` [Tubocurarine, d-tubocurarine]: the “Ratio = IC50 TFT assay/IC50 Ellman assay” value at murine AChE (mAChE) [1] is listed as 0.7. In addition, the IC50 was 50000 to 70000 nM against murine AChE (mAChE) [1] (IC50, TFT assay); 50000 nM at murine AChE (mAChE) [1] (setting [4]); 50000 to 70000 nM against murine AChE (mAChE) [2] (IC50, Ellman assay); 69000 nM against murine AChE (mAChE) [2] (setting [5]).

Consider `Cc1ccc2c(c1)sc(-c1ccc(N(C)C)cc1)[n+]2C` [TFT, thioflavin-T], for which the dissociation constant (Kd) was 890 nM on human recombinant AChE (read-out: Kd of TFT, ref De Ferrari et al. [17]); 360 nM at human recombinant AChE (read-out: Kd of TFT, ref Sultatos and Kaushik [13]); 1400 ± 200 nM on murine AChE (mAChE) [3]. Besides, on murine AChE (mAChE) [3] (10 uM TFT), the “increase of TFT fluorescence in the presence of mAChE over free solution” value was 1.96 fold. On murine AChE (mAChE) [3] (mean ± SEM, n = 7), the “Bmax, maximum specific TFT fluorescence in the presence of mAChE” value was determined as 562 ± 23 fluorescent units.

Take benzylpiperidine: the “Ratio = IC50 TFT assay/IC50 Ellman assay” value on murine AChE (mAChE) [1] stood at 0.95. The “maximum percentage reduction of total TFT fluorescence” value on murine AChE (mAChE) [1] is listed as “around 30%”. Besides, the IC50 on murine AChE (mAChE) [1] (setting [6]) amounted to 159000 nM; at murine AChE (mAChE) [1] (read-out: potency (IC50) for reducing thioflavin-T fluorescence), 159000 nM; at murine AChE (mAChE) [2] (setting [7]), 167000 nM.

As to `CNC(=O)O/N=C/C(C)(C)SC` [Aldicarb, aldicarb], at murine AChE (mAChE) [1], the “Ratio = IC50 TFT assay/IC50 Ellman assay” value stood at 0.9. Besides, the IC50 at murine AChE (mAChE) [1] (setting [4]) was 565 nM; at murine AChE (mAChE) [2] (setting [5]), 645 nM.

Regarding `CCC(C)CSc1ccccc1OC(=O)NC` (stereo not shown) [Compound 2, 2-(2-methylbutylthio)phenyl methylcarbamate], the “Ratio = IC50 TFT assay/IC50 Ellman assay” value at murine AChE (mAChE) [1] is on record as 0.9. The half-inhibitory concentration (IC50) at murine AChE (mAChE) [1] (setting [4]) was found to be 8900 nM; against murine AChE (mAChE) [2] (setting [5]) it was 10300 nM.

Consider `CC[N+](C)(CC)CCC[n+]1c(-c2ccccc2)c2cc(N)ccc2c2ccc(N)cc21` [Propidium Iodide, propidium iodide], for which the “Ratio = IC50 TFT assay/IC50 Ellman assay” value on murine AChE (mAChE) [1] is listed as 1.0. Further, at murine AChE (mAChE) [1], the “TFT fluorescence remaining after adding propidium iodide” value was 0%. The half-maximal inhibitory concentration (IC50) against murine AChE (mAChE) [1] (IC50, TFT assay) was 700 nM; on murine AChE (mAChE) [1] (setting [4]) it was 670 nM; on murine AChE (mAChE) [2] (IC50, Ellman assay) it was 700 nM; against murine AChE (mAChE) [2] (setting [5]) it was 662 nM.

In the case of `C=CC[N+](C)(C)c1ccc(CCC(=O)CCc2ccc([N+](C)(C)CC=C)cc2)cc1.[Br-].[Br-]` [BW284C51, BW284c51], the “Ratio = IC50 TFT assay/IC50 Ellman assay” value on murine AChE (mAChE) [1] was found to be 1.9. For the same compound, the half-maximal inhibitory concentration (IC50) on murine AChE (mAChE) [1] (setting [6]) stood at 8.3 nM; at murine AChE (mAChE) [2] (setting [7]), 4.4 nM.

Take `CC[N+](C)(C)c1cccc(O)c1` [Edrophonium, edrophonium]: at murine AChE (mAChE) [1], the “Ratio = IC50 TFT assay/IC50 Ellman assay” value was determined as 0.33, the “fold lower IC50 in TFT assay than in Ellman assay” value amounted to 3 fold and the “maximum percentage reduction of total TFT fluorescence” value is “around 30%”. The same compound displayed an IC50 at murine AChE (mAChE) [1] (setting [4]) of 1120 nM. Also, the IC50 against murine AChE (mAChE) [2] (setting [5]) was 3430 nM.

`CNC(=O)Oc1cccc(C(C)(C)C)c1` [Compound 1, 3-tert-butylphenyl methylcarbamate]: the “Ratio = IC50 TFT assay/IC50 Ellman assay” value at murine AChE (mAChE) [1] came out at 0.4. Also, the concentration for half-maximal inhibition (IC50) came out at 25 nM at murine AChE (mAChE) [1] (setting [4]) and 62 nM against murine AChE (mAChE) [2] (setting [5]).

Regarding `Cc1nc(N(C)C)nc(OC(=O)N(C)C)c1C` [Pirimicarb, pirimicarb], at murine AChE (mAChE) [1], the “Ratio = IC50 TFT assay/IC50 Ellman assay” value worked out at 0.6. For the same compound, the IC50 on murine AChE (mAChE) [1] (setting [4]) is 454 nM; on murine AChE (mAChE) [2] (setting [5]) it was 738 nM.

With `CNC(=O)Oc1cccc2c1OC(C)(C)O2` [Bendiocarb, bendiocarb], the “Ratio = IC50 TFT assay/IC50 Ellman assay” value at murine AChE (mAChE) [1] amounted to 0.4. Moreover, the half-inhibitory concentration (IC50) is 20 nM against murine AChE (mAChE) [1] (setting [4]) and 46 nM against murine AChE (mAChE) [2] (setting [5]).
